{"source": "patent US20230416261A1", "about": "“ETHANEDIAMINE-HETEROCYCLE DERIVATIVES AS INHIBITORS OF PROTEIN ARGININE METHYLTRANSFERASES” (Board of Regents, The University of Texas System, priority 2021, published 2023)", "key": {"[1]": {"biological_target": "T1, PRMT1 (Homo sapiens, UniProt Q99873)", "T1 sequence (Q99873 whole entry)": "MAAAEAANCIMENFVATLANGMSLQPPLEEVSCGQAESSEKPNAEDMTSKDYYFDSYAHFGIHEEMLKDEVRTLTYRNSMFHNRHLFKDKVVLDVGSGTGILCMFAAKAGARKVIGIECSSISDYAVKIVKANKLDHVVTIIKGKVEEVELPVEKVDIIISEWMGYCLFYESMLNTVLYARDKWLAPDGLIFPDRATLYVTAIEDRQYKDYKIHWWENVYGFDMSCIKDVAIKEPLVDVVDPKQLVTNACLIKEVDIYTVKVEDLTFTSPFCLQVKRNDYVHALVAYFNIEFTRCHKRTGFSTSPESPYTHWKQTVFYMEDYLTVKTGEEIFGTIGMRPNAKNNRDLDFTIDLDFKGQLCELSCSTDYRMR", "assay": "PRMT1 RKO Cellular Target Engagement Assay (In-Cell Western, asymmetric di-methyl arginine)", "type": "cell-based", "conditions": "RKO cells, 48 hr compound incubation; read-out: RKO IC50 (PRMT-1 Target Engagement)", "in_short": "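RKO cells (1,000/well) received 1:3 serially diluted compound for 48 h at 37 °C, then were fixed, permeabilised and immunostained for asymmetric di-methyl arginine by In-Cell Western. The 800 nm antibody signal was normalised to CellTag 700 nm; IC50 from four-parameter logistic fit.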"}, "[2]": {"tested_on": "PATC53 cells", "assay": "PATC53 Long Term Phenotypic Assay (14 days, crystal violet viability)", "type": "cell-based", "conditions": "336 h", "procedure": "PATC53 cells were derived from the PATC53 PDX model and kindly provided by Jason Fleming (MDACC). The cells were routinely maintained in DMEM/F12 Medium (Corning, Catalog #10-090-CV) supplemented with 10% fetal bovine serum (Sigma, Catalog #F2442), 100 units/mL penicillin and 100 μg/mL streptomycin (Gibco, Catalog #15140-122) in a humidified incubator (37° C., 5% CO2). Prior to the assay, cells were seeded onto a 12-well, TC treated plate (Corning, catalog #353043) at a density of 250 cells per well in a volume of 1 mL. The plate was incubated for 24 hours at 37° C. and 5% CO2. Stock solutions of the test compounds were prepared in 100% DMSO (Sigma, Catalog #D2650) and serially diluted 1:3 using 100% DMSO. Compounds were additionally diluted 1:100 in culture medium, and 110 μL/well was transferred to the tissue culture plate. Following the compound addition, the plate was incubated at 37° C. and 5% CO2 for 14 days. Viability was then assessed by crystal violet staining (Fisher Scientific, Catalog #C58125) as follows: 450 μL of crystal violet (1 mg/mL) was added to the plate for a 10 minute incubation at room temperature. After incubation, the plate was washed 3× with distilled water to remove excess dye and allowed to dry overnight. The crystal violet was solubilized using 10% HOAc (500 μL) for 10 minutes at room temperature, while shaking. A volume of 100 μL was then transferred to a 96-well SpectraPlate (Perkin Elmer, Catalog #6005649). Absorbance at 590 nm was measured with a BioTek Synergy Neo. IC50 values were calculated using a four-parameter logistic curve fit using Genedata Screener software."}, "[3]": {"tested_on": "DOHH2 cells", "assay": "DOHH2 Long Term Phenotypic Assay (7 days, Cell Titer-Glo viability)", "type": "cell-based", "conditions": "Homo sapiens, DOHH-2, 168 h, Cell Titer-Glo 2.0", "in_short": "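DOHH2 lymphoma cells (250 per well) in RPMI-1640 with 10% FBS were exposed to 1:3 serially diluted compounds for 7 days at 37 °C, 5% CO2. Viability was read by CellTiter-Glo 2.0 luminescence, and IC50 values came from four-parameter logistic fits.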"}, "[4]": {"biological_target": "T1, PRMT1", "assay": "PRMT1 Enzymatic Assay (LANCE TR-FRET, methylation of histone H4 at Arg3)", "type": "biochemical", "design": "purchased SignalChem P365-380G", "conditions": "PRMT1 1.5 nM, SAM 1 μM, biotinylated histone H4 (1-21) 25 nM; read-out: PRMT-1 IC50", "in_short": "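PRMT1 (1.5 nM) preincubated 15 min with compound at room temperature, then reacted 1 h with 1 μM SAM and 25 nM biotinylated histone H4 (1-21) in 50 mM Hepes pH 8, 1 mM TCEP, 0.003% Tween-20. H4R3me detected by TR-FRET (665/620 nm ratio); IC50 from four-parameter logistic fit.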"}}, "data": [{"smiles": "CNCCN(C)Cc1nn2c(c1C1CCC(COC)(COC)CC1)CN(C(=O)C1CCCO1)CC2", "note": "(stereo not drawn) [Example 32, (3-(4,4-bis(methoxymethyl)-cyclohexyl)-2-((methyl(2-(methylamino)ethyl)amino)-methyl)-6,7-dihydropyrazolo-[1,5-a]pyrazin-5(4H)-yl)-(tetrahydrofuran-2-yl)-methanone]", "values": [{"measurement": "IC50", "setting": "[1]", "result": 293, "unit": "nM"}, {"measurement": "IC50", "setting": "[2]", "result": 163, "unit": "nM"}, {"measurement": "IC50", "setting": "[3]", "result": 160, "unit": "nM"}, {"measurement": "IC50", "setting": "[4]", "result": 46, "unit": "nM"}]}, {"smiles": "CNCCN(C)Cc1nn2c(c1C1CCC(COC)(COC)CC1)CN(C(=O)C1(OC)CCC1)CC2", "note": "[Example 28, (3-(4,4-bis(methoxymethyl)-cyclohexyl)-2-((methyl(2-(methylamino)ethyl)amino)-methyl)-6,7-dihydropyrazolo-[1,5-a]pyrazin-5(4H)-yl)(1-methoxycyclobutyl)-methanone]", "values": [{"measurement": "IC50", "setting": "[1]", "result": 907, "unit": "nM"}, {"measurement": "IC50", "setting": "[2]", "result": 435, "unit": "nM"}, {"measurement": "IC50", "setting": "[3]", "result": 207, "unit": "nM"}, {"measurement": "IC50", "setting": "[4]", "result": 139, "unit": "nM"}]}, {"smiles": "CNCCN(C)Cc1nn2c(c1C1CCC(COC)(COC)CC1)CN(C(=O)C(C)(F)F)CC2", "note": "[Example 36, 1-(3-(4,4-bis(methoxy-methyl)cyclohexyl)-2-((methyl(2-(methylamino)-ethyl)amino)methyl)-6,7-dihydropyrazolo[1,5-a]-pyrazin-5(4H)-yl)-2,2-difluoropropan-1-one]", "values": [{"measurement": "IC50", "setting": "[1]", "result": 269, "unit": "nM"}, {"measurement": "IC50", "setting": "[2]", "result": 246, "unit": "nM"}, {"measurement": "IC50", "setting": "[3]", "result": 190, "unit": "nM"}, {"measurement": "IC50", "setting": "[4]", "result": 50, "unit": "nM"}]}, {"smiles": "CNCCN(C)Cc1nn2c(c1C1CCC(COC)(COC)CC1)CN(C(=O)C1(C)COC1)CC2", "note": "[Example 16, (3-(4,4-bis(methoxymethyl)-cyclohexyl)-2-((methyl(2-(methylamino)ethyl)amino)-methyl)-6,7-dihydropyrazolo-[1,5-a]pyrazin-5(4H)-yl)(3-methyloxetan-3-yl)methanone]", "values": [{"measurement": "IC50", "setting": "[1]", "result": 370, "unit": "nM"}, {"measurement": "IC50", "setting": "[2]", "result": 209, "unit": "nM"}, {"measurement": "IC50", "setting": "[3]", "result": 160, "unit": "nM"}, {"measurement": "IC50", "setting": "[4]", "result": 64, "unit": "nM"}]}, {"smiles": "CNCCN(C)Cc1nn2c(c1C1CCC(COC)(COC)CC1)CN(C(=O)COC)CC2", "note": "[Example 30, 1-(3-(4,4-bis(methoxy-methyl)cyclohexyl)-2-((methyl(2-(methylamino)-ethyl)amino)methyl)-6,7-dihydropyrazolo[1,5-a]-pyrazin-5(4H)-yl)-2-methoxyethan-1-one]", "values": [{"measurement": "IC50", "setting": "[1]", "result": 795, "unit": "nM"}, {"measurement": "IC50", "setting": "[2]", "result": 795, "unit": "nM"}, {"measurement": "IC50", "setting": "[3]", "result": 159, "unit": "nM"}, {"measurement": "IC50", "setting": "[4]", "result": 81, "unit": "nM"}]}, {"smiles": "CNCCN(C)Cc1nn2c(c1C1CCC(COC)(COC)CC1)CN(C(=O)C1(F)CC1)CC2", "note": "[Example 13, (3-(4,4-bis(methoxymethyl)-cyclohexyl)-2-((methyl(2-(methylamino)ethyl)amino)-methyl)-6,7-dihydropyrazolo-[1,5-a]pyrazin-5(4H)-yl)(1-fluorocyclopropyl)methanone]", "values": [{"measurement": "IC50", "setting": "[1]", "result": 225, "unit": "nM"}, {"measurement": "IC50", "setting": "[2]", "result": 38, "unit": "nM"}, {"measurement": "IC50", "setting": "[3]", "result": 150, "unit": "nM"}, {"measurement": "IC50", "setting": "[4]", "result": 56, "unit": "nM"}]}, {"smiles": "CNCCN(C)Cc1nn2c(c1C1CCC(COC)(COC)CC1)CN(C(=O)C(C)C#N)CC2", "note": "(stereo not drawn) [Example 38, 3-(3-(4,4-bis(methoxy-methyl)cyclohexyl)-2-((methyl(2-(methylamino)-ethyl)amino)methyl)-6,7-dihydropyrazolo[1,5-a]-pyrazin-5(4H)-yl)-2-methyl-3-oxopropanenitrile]", "values": [{"measurement": "IC50", "setting": "[1]", "result": 690, "unit": "nM"}, {"measurement": "IC50", "setting": "[2]", "result": 580, "unit": "nM"}, {"measurement": "IC50", "setting": "[3]", "result": 83, "unit": "nM"}, {"measurement": "IC50", "setting": "[4]", "result": 103, "unit": "nM"}]}, {"smiles": "COCC1(COC)CCC(c2c(CN(C)CCN)nn3c2CN(C(=O)C2(F)CC2)CC3)CC1", "note": "[Example 47, (2-(((2-aminoethyl)(methyl)-amino)methyl)-3-(4,4-bis-(methoxymethyl)cyclohexyl)-6,7-dihydropyrazolo[1,5-a]-pyrazin-5(4H)-yl)(1-fluorocyclopropyl)methanone]", "values": [{"measurement": "IC50", "setting": "[1]", "result": 671, "unit": "nM"}, {"measurement": "IC50", "setting": "[2]", "result": 45, "unit": "nM"}, {"measurement": "IC50", "setting": "[3]", "result": 187, "unit": "nM"}, {"measurement": "IC50", "setting": "[4]", "result": 15, "unit": "nM"}]}, {"smiles": "CNCCN(C)Cc1nn2c(c1C1CCC(COC)(COC)CC1)CN(C(=O)C13CC(C)(C1)C3)CC2", "note": "[Example 63, (3-(4,4-bis(methoxymethyl)-cyclohexyl)-2-((methyl(2-(methylamino)ethyl)amino)-methyl)-6,7-dihydropyrazolo-[1,5-a]pyrazin-5(4H)-yl)(3-methylbicyclo[1.1.1]pentan-1-yl)methanone]", "values": [{"measurement": "IC50", "setting": "[1]", "result": 610, "unit": "nM"}, {"measurement": "IC50", "setting": "[2]", "result": 16, "unit": "nM"}, {"measurement": "IC50", "setting": "[3]", "result": 67, "unit": "nM"}, {"measurement": "IC50", "setting": "[4]", "result": 44, "unit": "nM"}]}]}
